In patent US7939288B2, “Method for differentiating between factor XIII deficiency states and fibrinogen deficiency states by means of thrombelastographic techniques” (CSL Behring GmbH, priority 2005, dated 2011):
Each block holds one compound with its values, some of them ahead of it.

Target: T1, factor XIII (Homo sapiens, UniProt P00488)
T1 construct: The test batch contained: 200 μl of plasma; from tissue; host or cells: standard human plasma
T1 sequence (P00488 39-732 limits assumed): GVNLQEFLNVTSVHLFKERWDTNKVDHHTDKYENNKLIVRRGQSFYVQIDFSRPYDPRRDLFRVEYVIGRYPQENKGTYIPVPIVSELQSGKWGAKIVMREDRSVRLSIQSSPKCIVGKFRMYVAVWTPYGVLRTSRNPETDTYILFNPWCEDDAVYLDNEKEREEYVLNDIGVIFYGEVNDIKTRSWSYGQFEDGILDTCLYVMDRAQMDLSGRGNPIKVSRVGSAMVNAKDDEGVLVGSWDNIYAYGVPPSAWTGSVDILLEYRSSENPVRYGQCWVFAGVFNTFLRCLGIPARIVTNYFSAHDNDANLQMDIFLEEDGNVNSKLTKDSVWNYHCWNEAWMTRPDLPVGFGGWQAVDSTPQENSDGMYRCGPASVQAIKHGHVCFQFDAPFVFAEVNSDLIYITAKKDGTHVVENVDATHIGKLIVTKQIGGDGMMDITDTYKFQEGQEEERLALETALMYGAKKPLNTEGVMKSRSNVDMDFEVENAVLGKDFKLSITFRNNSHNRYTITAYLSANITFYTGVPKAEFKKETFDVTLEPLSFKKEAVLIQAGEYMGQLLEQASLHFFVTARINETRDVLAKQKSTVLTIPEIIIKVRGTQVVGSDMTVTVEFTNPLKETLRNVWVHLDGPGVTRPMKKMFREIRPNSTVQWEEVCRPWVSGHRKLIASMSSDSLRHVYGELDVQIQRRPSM
Assay: TEG of standard human plasma with low molecular weight factor XIII inhibitors, clotting started by tissue factor reagent (Thromborel S)
Format: biochemical
Method: For the quantitative determination of the influence of factor XIII, standard human plasma with or without addition of low molecular weight factor XIII inhibitors was analysed by means of TEG. The clotting reaction was started or accelerated by addition of a tissue factor reagent. The test batch contained: 200 μl of plasma, 30 μl of NaCl soln (control) or inhibitor solution in different dilutions, 50 μl of tissue factor reagent. (Thromborel S, Dade Behring) and 20 μl of calcium chloride solution (200 mmol/l). The reagents were pipetted into the cup at 37° C. and the TEG measurement was started with Haemoscope apparatuses. Alternatively, the calcium chloride can also be already added to the tissue factor reagent and the reaction thus started. The measurement parameters of reaction time (R), alpha angle, maximum amplitude (MA) and time to achieve the maximum amplitude (MA) were determined and evaluated. […] The investigations carried out here with plasma are in principle also applicable to whole blood.

[1] = concentration in the test 0.32 μg/ml, standard human plasma
[2] = concentration in the test 1.07 μg/ml, standard human plasma
[3] = concentration in the test 3.21 μg/ml, standard human plasma
[4] = concentration in the test 10.7 μg/ml, standard human plasma
[5] = concentration in the test 32.1 μg/ml, standard human plasma
[6] = concentration in the test 107 μg/ml, standard human plasma, 107 µg/ml in the test
[7] = concentration in the test 321 μg/ml, standard human plasma, 321 µg/ml in the test
[8] = concentration in the test 536 μg/ml, standard human plasma, 536 µg/ml in the test
[9] = concentration in the test 1.071 μg/ml (so in the source), standard human plasma
[10] = concentration in the test 3.214 μg/ml (so in the source), standard human plasma
[11] = concentration in the test 107 μg/ml, standard human plasma
[12] = concentration in the test 321 μg/ml, standard human plasma
[13] = concentration in the test 0.033 μg/ml, Table 3
[14] = concentration in the test 0.10 μg/ml, Table 3
[15] = concentration in the test 0.33 μg/ml, Table 3
[16] = concentration in the test 1.00 μg/ml, Table 3
[17] = concentration in the test 3.33 μg/ml, Table 3

Angle [1]: 74.0 ° | MA [1]: 18.1 mm | R [1]: 20.0 s | TMA [1]: 655.0 s | Angle [2]: 74.9 ° | MA [2]: 18.4 mm | R [2]: 22.5 s | TMA [2]: 610.0 s | Angle [3]: 74.7 ° | MA [3]: 19.1 mm | R [3]: 20.0 s | TMA [3]: 657.5 s | Angle [4]: 74.4 ° | MA [4]: 18.4 mm | R [4]: 25.0 s | TMA [4]: 560.0 s | Angle [5]: 74.4 ° | MA [5]: 17.3 mm | R [5]: 17.5 s | TMA [5]: 562.5 s | Angle [6]: 76.9 ° | MA [6]: 18.7 mm | R [6]: 32.5 s | TMA [6]: 237.5 s | Angle [7]: 71.0 ° | MA [7]: 15.1 mm | R [7]: 20.0 s | TMA [7]: 490.0 s | Angle [8]: 70.3 ° | MA [8]: 13.3 mm | R [8]: 27.5 s | TMA [8]: 370.0 s
Compound: CN(C)c1cccc2c(S(=O)(=O)NCCCCCN)cccc12 [Monodansylcadaverine]

Angle [2]: 73.4 ° | MA [2]: 17.8 mm | R [2]: 20.0 s | TMA [2]: 592.5 s | Angle [9]: 70.3 ° | MA [9]: 14.0 mm | R [9]: 15.0 s | TMA [9]: 492.5 s | Angle [3]: 75.0 ° | MA [3]: 17.9 mm | R [3]: 22.5 s | TMA [3]: 527.5 s | Angle [10]: 71.9 ° | MA [10]: 13.0 mm | R [10]: 25.0 s | TMA [10]: 182.5 s | Angle [4]: 74.8 ° | MA [4]: 19.2 mm | R [4]: 20.0 s | TMA [4]: 622.5 s | Angle [5]: 73.9 ° | MA [5]: 17.2 mm | R [5]: 22.0 s | TMA [5]: 472.5 s | Angle [11]: 73.5 ° | MA [11]: 16.9 mm | R [11]: 17.5 s | TMA [11]: 462.5 s | Angle [12]: 72.7 ° | MA [12]: 15.5 mm | R [12]: 20.0 s | TMA [12]: 430.0 s
Compound: NCCc1c[nH]cn1 [Histamine]

MA (concentration in the test 0.033 μg/ml): 21.5 mm | Angle [13]: 79.6 ° | R [13]: 22.5 s | TMA [13]: 177.5 s | MA (concentration in the test 0.10 μg/ml): 18.5 mm | Angle [14]: 79.0 ° | R [14]: 22.5 s | TMA [14]: 140.0 s | MA (concentration in the test 0.33 μg/ml): 14.9 mm | Angle [15]: 77.0 ° | R [15]: 22.5 s | TMA [15]: 77.5 s | MA (concentration in the test 1.00 μg/ml): 13.1 mm | Angle [16]: 75.4 ° | R [16]: 22.5 s | TMA [16]: 77.5 s | MA (concentration in the test 3.33 μg/ml): 12.4 mm | Angle [17]: 74.0 ° | R [17]: 22.5 s | TMA [17]: 77.5 s
Compound: CC(=O)CSc1n(C)c(C)c(C)[n+]1C.[Cl-] [1,3,4,5-tetramethyl-2-[(2-oxopropyl)thio]imidazolium chloride]

Angle [2]: 73.1 ° | MA [2]: 17.2 mm | R [2]: 22.5 s | TMA [2]: 452.5 s | Angle [9]: 69.5 ° | MA [9]: 13.6 mm | R [9]: 25 s | TMA [9]: 405.0 s | Angle [3]: 73.7 ° | MA [3]: 15.9 mm | R [3]: 17.5 s | TMA [3]: 277.5 s | Angle [10]: 72.6 ° | MA [10]: 13.9 mm | R [10]: 32.5 s | TMA [10]: 327.5 s | Angle [4]: 73.4 ° | MA [4]: 18.7 mm | R [4]: 20.0 s | TMA [4]: 672.5 s | Angle [5]: 73.0 ° | MA [5]: 16.9 mm | R [5]: 25 s | TMA [5]: 585.0 s | Angle [11]: 73.0 ° | MA [11]: 16.5 mm | R [11]: 15 s | TMA [11]: 505.0 s | Angle [12]: 72.8 ° | MA [12]: 15.8 mm | R [12]: 20 s | TMA [12]: 400.0 s
Compound: NCCCCN [Putrescine]
